Results from patent US7078424B2, “N-linked sulfonamides of N-heterocyclic carboxylic acids or carboxylic acid isosteres” (GPI NIL Holdings, Inc., priority 1998, dated 2006).

Tested on: dopaminergic neurons
Experiment: MPTP model of Parkinson's Disease in mice (MPTP Neurodegenerative Model)
Assay type: in vivo
Conditions: recovery of TH-stained dopaminergic neurons in striatum; male CD1 mice, MPTP 30 mg/kg i.p. 5 days; test compound 4 mg/kg s.c. concurrent with MPTP plus 5 further days; sacrificed at 18 days
Procedure: MPTP lesioning of dopaminergic neurons in mice is used as an animal model of Parkinson's Disease. Four week old male CD1 white mice are dosed i.p. with 30 mg/kg of MPTP for 5 days. Test compounds (4 mg/kg), or vehicle, are administered s.c. along with the MPTP for 5 days, as well as for an additional 5 days following cessation of MPTP treatment. At 18 days following MPTP treatment, the animals are sacrificed and the striata dissected and perfusion-fixed. Immunostaining is performed on saggital and coronal brain sections using anti-tyrosine hydroxylase […] to quantitate survival and recovery of dopaminergic neurons. In animals treated with MPTP and vehicle, a substantial loss of functional dopaminergic terminals is observed as compared to non-lesioned animals. Lesioned animals receiving test compounds show a significant recovery of TH-stained dopaminergic neurons. This model presents quantitation for the recovery of TH-positive dopaminergic neurons in the striatum of animals receiving the compounds of the present invention. […]
Percent striatal innervation density was quantitated is in brain sections with an anti-tyrosine hydroxylase immunoglobulin, which is indicative of functional dopaminergic neurons. […]

O=C(O)[C@@H]1CCCN1S(=O)(=O)Cc1ccccc1 [Compound A, (2S)-N-(benzylsulfonyl)-2-pyrrolidinecarboxylic Acid]
% Recovery: 24.4%
